From patent US20130167838A1, “NASAL FORMULATION” (TEVA BRANDED PHARMACEUTICAL PRODUCTS, INC., priority 2011, published 2013)
Structures can show the parent of a compound that is named as a salt.

Assays:
[1] = Solubility in an HFA/ethanol formulation; format: physicochemical
Excerpt: Azelastine has been marketed as the hydrochloride salt, but the problem is that the hydrochloride salt is not soluble in an HFA/ethanol formulation.

[2] = Stability of active ingredients in ethanol formulations with and without hydrochloric acid, stored at 60° C. for 21 days, HPLC; format: physicochemical; details: ethanol formulations with vs without HCl, FIG. 2
Experimental: Further formulations were prepared containing the active ingredient(s) and ethanol with and without hydrochloric acid in order to test the stability of the active ingredients. The formulations were: Formulation (i): azelastine+BDP, with acid Formulation (ii): BDP without acid Formulation (iii): BDP with acid Formulation (iv): azelastine+BDP, without acid The precise ethanol formulations were as follows: [table] The formulations were stored at 60° C. for 21 days and the amounts of the active ingredients measured at intervals during the test period. The amounts of the active ingredients were measured using HPLC with external standards of azelastine free base and BDP. The results are shown graphically in FIG. 2. […] The BDP with no acid and no azelastine was […]. However, the combination of BDP with both acid and azelastine is […].

| SMILES | solubility in an HFA/ethanol formulation [1] | stabilisation of the azelastine by including an acid (amount measured by HPLC) [2] |
| --- | --- | --- |
| CN1CCCC(n2nc(Cc3ccc(Cl)cc3)c3ccccc3c2=O)CC1 (centres unmarked) [hydrochloride salt, azelastine hydrochloride] | not soluble | – |
| CN1CCCC(n2nc(Cc3ccc(Cl)cc3)c3ccccc3c2=O)CC1 (centres unmarked) [azelastine, Azelastine] | – | some additional stabilisation |
